“Also recorded” adds a separate entry of the source.
Experiments:
[1] = tested on: F-actin in SKOV3 cells expressing LifeAct-GFP; assay: Live cell confocal imaging of LifeAct-GFP reporter (F-actin disruption); type: cell-based; conditions: 0-2 hours
Method: To visualize effects of analogs on cellular F-actin dynamics, several cancer cell lines were transduced with a lentivirus expressing a green fluorescent protein (GFP) fusion with LifeAct, a 17 amino-acid protein containing the actin-binding domain of a yeast protein. To produce this lentivirus, 500,000 HEK293T cells were seeded on a 6-well plate coated with 0.01 mg/ml of poly-lysine solution. 24 hours later viral packing plasmids Pax2 (1 ug) and MD2G (0.5 ug) were mixed in serum free media with 1 ug of pLenti.PGK.LifeAct-GFP.W (Addgene Catalogue No. 51010), and 10 uL of Xtreme-Gene (Roche, Germany) were then added to the master mix. The mix was vortexed and incubated at room temperature for 15 minutes before being added in a drop-wise manner to HEK293T cells. After 24 hours, HCC1954, SKBR3 or SKOV3 cells were seeded in a 6-well plate and incubated at 37° C. for 24 hours. The virus-containing media from the HEK293T cells media was collected and filtered (0.45 μm). HCC1954, SKBR3 or SKOV3 cells were incubated with 0.5 mL virus-containing media, and incubated at 37° C. for 2-3 days. Efficiency of transduction was determined by visualizing GFP positive cells using fluorescence microscopy. […]
Disruption of filamentous actin (F-actin) in HER2 cancer cells was measured using live cell confocal imaging of LifeAct-GFP reporter. […]

SKOV3 (ovarian) cells = assay: IncuCyte PI uptake assay of cytotoxicity; type: cell-based; conditions: 48 hours of treatment, compared to DMSO control
Method: The cytotoxicity of analogs was determined by using a PI uptake assay. HCC1954, SKBR3 or SKOV3 cells (2,000) were seeded in a 96-well plate. Treatments were prepared in 2% FBS containing media with 1 μM PI, and imaged using the IncuCyte Zoom Live Cell Analysis System equipped with a 10× objective. Phase contrast and fluorescent images were acquired every 2-3 hours for 48 hours. Several parameters are available upon analysis utilizing the IncuCyte Zoom Analysis tools including number of PI positive cells and cell confluence. See FIG. 8 for plots of SKOV3 cell analog cytotoxicity and HCC1954 cell analog cytotoxicity for specified treatments.
Cytotoxicity effects of Myc B and analogs in HER2 cancer cells was studied. Specifically, SKOV3 (ovarian) and HCC1954 (breast) cells were incubated with DMSO (1%) or analog (12.5-50 μM) in DMEM supplemented with 2% FBS and PI (1 μM) using an IncuCyte Zoom Live Cell Analysis System for 48 hours. As shown in FIGS. 10A-Q, graphs depict the number of PI positive for SKOV3 cells (left) and HCC1954 cells (right) over 48 hours of treatment with DMSO or indicated analog (12.5-50 μM).

[2] = tested on: HER2 cancer cells SKOV3 (ovarian) and HCC1954 (breast); assay: Growth suppression of HER2 cancer cells (cell confluence change, live cell imaging); type: cell-based; conditions: analogs 25 μM, Lapatinib 25 μM as comparator
Method: Growth suppression of HER2 cancer cells by select Myc B analogs was studied to determine rate of growth of HER2 cancer cells (SKOV3 (ovarian) and HCC1954 (breast)) as measured using a live cell imaging system. Findings are shown in FIGS. 9A and 9B, SKOV3 Ovarian cancer and HCC1954 Breast cancer cells were incubated with DMSO (1%), Myc B (25 nM), or the indicated analogs (25 μM), or with HER2 inhibitor Lapatinib (25 μM) in DMEM supplemented with 2% FBS and PI (1 μM) using an IncuCyte Zoom Live Cell Analysis System for 48 hours. Graphs depict the percent change in confluence at 48 hours compared to time zero (significant differences from DMSO *p<0.05, **p<0.01, ***p<0.001).

F-actin in SKOV3 cells = assay: F-actin staining (TRITC-Phalloidin) fluorescence micrographs; type: cell-based; conditions: 2 or 20 hours
Method: Referring to FIG. 12, representative fluorescence micrographs are shown of SKOV3 cells treated with DMSO (1%), Myc B (25 nM), or indicated analog (10 μM) for 2 or 20 hours prior to staining of F-actin (TRITC-Phalloidin). the effects of Myc B analog treatments over 20 hours are compared with DMSO and Myc B in HER2 cancer cells. […] As described in Example 37, disruption of filamentous actin (F-actin) in HER2 cancer cells was measured using live cell confocal imaging of LifeAct-GFP reporter. The LifeAct-GFP signal in DMSO control conditions indicates the localization of F-actin structures in SKOV3 cells. […] Compounds described herein can be used to treat such actin-related problems because of their efficacy in disrupting actin, as shown by studies described in the Examples and Figures herein.

[3] = tested on: HER2+ cell migration and invasion (SKOV3 cells); assay: Cell migration and invasion assays (IncuCyte scratch wound, spheroid reattachment); type: cell-based; conditions: sub-lethal doses (low nM)
Method: Effects of analogs on cellular motility including invasion and migration were evaluated using the IncuCyte Live Cell System. 25,000 SKOV3 cells were plated on a 96-well ImageLock coated with 10 μg/ml of human fibronectin. Once the cells reached approximately 90% confluence a scratch/wound is induced using the IncuCyte Woundmaker (a 96-pin would making tool). The cells were then rinsed with sterile PBS then media, with or without treatment was added. To evaluate invasion 5% Matrigel was added. The plate was then inserted into the IncuCyte Zoom Live Cell Analysis System and imaged at 10× magnification every 2-3 hours following until wound closure or 48 hours.
The percentage of wound confluence, for migration, or would density, for invasion, was determined through the IncuCyte ZOOM Scratch Wound Analysis tool adjusted to cell line dependent processing definitions. See FIGS. 5 to 6 for images and graphical results.
A three-dimensional (3D) spheroid reattachment assay was performed to further evaluate analog effects on migration and invasion. A round bottom 96-well was coated with polyhydroxyehylmethacrylate (poly-hema) to create a non-adhesive conditions upon which cancer cells can form a 3D spheroid. […]
The percentage of migration/invasion was calculated using ImageJ (NIH) by measuring the area of migration or invasion and subtracting the intial size of the spheroid. […]

[4] = tested on: SKBR3, MDA-MB-453 and SKOV3 cells; assay: Cell viability, Trypan blue exclusion assay; type: cell-based; conditions: multiple cancer cell lines
Method: Referring to FIG. 1A-C, the cytotoxicity of MycB on HER2+ breast and ovarian cancer cells was measured. Specifically, data is provided regarding the percentage of viable cells following treatment with MycB at 0-200 nM concentrations for 48 hours using SKBR3, MDA-MB-453 and SKOV3 cells. Cell viability was determined using Trypan blue exclusion assay (both unstained and stained cells were counted on a hemocytometer; values are mean±SEM of triplicate experiments).

[5] = tested on: HER2+ SKOV3 subcutaneous tumor xenograft; assay: SKOV3 subcutaneous tumor xenograft study; type: in vivo, Rag2−/−:IL2Rγc−/− mice
Method: Referring to FIGS. 3A and 3B, a proof-of-principle study of the anticancer effects of MycB in a SKOV3 tumor xenograft model. […] Following the detection of palpable tumors, mice were randomized between vehicle control (DMSO), MycB (100 ng, intratumoral), TZ (50 μg, intraperitoneal), or both MycB and TZ (same doses/delivery) twice weekly until endpoint was reached (n=6/group; significant differences between treatment groups based on ANOVA are indicated by *P<0.05, **** P<0.0001).
The anti-tumor effects of MycB analogs are also expected to extend to other cancer types with selection of appropriate antibodies for these tumor types with novel ADC formulations.

In the case of `CCCO[C@H](CC)C[C@H](OC)[C@@H](C)CC[C@@H](OC(=O)C(C)C)[C@H](C)[C@H](OC)[C@H](C)/C=C/N(C)C=O` [4f], the “F-actin structures (LifeAct-GFP signal)” value ([1]; analogs 10 μM) is reported as “limited effects at early time points”, the “Cytotoxicity: number of PI positive cells (PI uptake)” value (SKOV3 (ovarian) cells) is reported as “significant cytoxicity response” and the “Growth suppression: percent change in confluence at 48 hours compared to time zero” value [2] is reported as “potent analog was seen in 4f (2534), with comparable effects of the HER2 inhibitor Lapatinib”.
For `CCC(=O)O[C@H](CC)C[C@H](OC)[C@@H](C)CC[C@@H](OC(=O)C(C)C)[C@H](C)[C@H](OC)[C@H](C)/C=C/N(C)C=O` [4g], the “Localization of endogenous F-actin (TRITC-Phalloidin)” value (shortened to “Localization of endogenous F-actin”) (F-actin in SKOV3 cells; analogs 10 μM) was “most highly disruptive of F-actin”.
In the case of `CCC(=O)O[C@H](CC)C[C@H](OC)[C@@H](C)CC[C@@H](OC(=O)[C@@H](C)OC)[C@H](C)[C@H](OC)[C@H](C)/C=C/N(C)C=O` [4h], the “Localization of endogenous F-actin” value (F-actin in SKOV3 cells; analogs 10 μM) is reported as “most highly disruptive of F-actin”.
With `COC[C@@H](OC)C(=O)O[C@H](CC[C@H](C)[C@@H](C[C@@H]1OC(=O)C[C@@H](O)C/C=C/C(=O)[C@H](C)[C@H](OC)c2coc(n2)-c2coc(n2)-c2coc(n2)/C=C/C[C@H](OC)[C@H]1C)OC)[C@H](C)[C@H](OC(C)=O)[C@H](C)/C=C/N(C)C=O` [MycB, Mycalolide B] the “F-actin structures (LifeAct-GFP signal)” value ([1]; Myc B 25 nM) was “time-dependent collapse of F-actin into large aggregates near the cell periphery”, the “Inhibition of cell motility and invasiveness” value [3] was “significant inhibition of cell motility and invasiveness” and the “Cytotoxicity in cancer cell lines” value [4] was “cytotoxicity in multiple cancer cell lines”. For the same compound, the “Localization of endogenous F-actin” value (F-actin in SKOV3 cells; Myc B 25 nM) was “disruption of F-actin at the cell periphery and collapse into large aggregates in the cytoplasm of the cells”, the “Cytotoxicity: number of PI positive cells (PI uptake)” value (SKOV3 (ovarian) cells) was “significant increase in PI uptake” and the “Growth of SKOV3 tumors (tumor volume and mass)” value ([5]; MycB 100 ng intratumoral in combination with TZ 50 μg intraperitoneal, twice weekly) was “reduced growth of SKOV3 tumors; also recorded: potential improvement when combined with TZ (Herceptin) on limiting tumor growth and metastasis”. The “Growth of SKOV3 tumors (tumor volume and mass)” value ([5]; MycB alone, 100 ng intratumoral twice weekly) was “reduced growth of SKOV3 tumors; also recorded: anti-tumor effects of MycB on tumor volume and mass were demonstrated”.
